# Patent EP0700912A1, “QUINOLONE DERIVATIVE OR SALT THEREOF, AND ANTIBACTERIAL CONTAINING THE SAME” (priority 1993, dated 1994)
# Legend:
# [1] = Photo-toxicity: ear abnormality after intravenous dosing and ultraviolet exposure; assay type: in vivo; details: 40 mg/kg/10 mℓ intravenously, female ICR mouse, headed 0 hour; for Number of toxicity-developed cases: ultraviolet rays 320-400 nm, 1.8 mW/cm²/sec, 4 hours; for ranking points: ultraviolet rays 4 hours, 0 = no abnormality, 1 = slight erythema, 2 = medium erythema, 3 = heavy erythema or edema
# Protocol: After 40 mg/kg/10 mℓ of the test compound were administered intravenously to a female ICR mouse (5-6 week old), it was exposed to ultraviolet rays (320-400 nm, 1.8 mW/cm²/sec) for 4 hours. […] The abnormality on the ears was ranked as 0 point in the case of no abnormality, 1 point in the case of slight erythema, 2 points in the case of medium erythema, and 3 points in the case of heavy erythema or edema.
# [2] = system: S.aureus 209P (IFO 12732); experiment: Antibacterial activities: minimum inhibitory concentration (standard method of Japan Society of Chemotherapy); assay type: cell-based; details: Staphylococcus aureus
# Protocol: (§1) The minimum inhibitory concentration [MIC: µg/mℓ] was measured in accordance with the standard method of Japan Society of Chemotherapy [CHEMOTHERAPY, 29, No.1, 76-79(1981)]. The results are shown in Table 13 in which compound numbers are the same as those synthesized in the above Examples.
# P.aeruginosa (IFO 3445) = experiment: as above; assay type: cell-based; details: Pseudomonas aeruginosa, IFO3445
# Protocol: as §1
# [3] = system: E.coli NIH JC-2 (IFO*12734); experiment: as above; assay type: cell-based; details: Escherichia coli
# Protocol: as §1
# [4] = Absorption and excretion: recovery in bile after oral administration; assay type: in vivo; details: rats with polyethylene tube in choledoch, bile collected over 24 hours
# Protocol: The absorption and excretion of the orallyadministered invention compound were tested by measuring the recovery in urine and that in bile according to the following method.
# After the test compound was prepared in a similar manner to the measurement of the recovery in urine, it was orally administered to the rats who had had their choledoch inserted with a polyethylene tube. The bile was collected over 24 hours. The concentration of the test compound in the bile was examined in the similar manner to the above and the excretion rate in the bile for 24 hours was determined.
MIC [2] [µg/mL],MIC (P.aeruginosa (IFO 3445)) [µg/mL],MIC [3] [µg/mL],Structure (SMILES),Number of toxicity-developed cases ([1]; first column),Number of toxicity-developed cases ([1]; second column),Number of toxicity-developed cases ([1]; third column),ranking points ([1]; first column),ranking points ([1]; second column),ranking points ([1]; third column),"Excretion rate (24 hrs, %) in bile [4] [%]"
0.05,0.1,0.013,Nc1c(F)c(N2CC[C@H](N)C2)cc2c1c(=O)c(C(=O)O)cn2-c1ccon1 [compound 57],,,,,,,
0.05,0.2,0.013,C[C@H]1CN(c2cc3c(c(N)c2F)c(=O)c(C(=O)O)cn3-c2ccon2)C[C@H]1N [compound 58],,,,,,,
0.2,0.2,0.05,N[C@H]1CCN(c2cc3c(c(Cl)c2F)c(=O)c(C(=O)O)cn3-c2ccon2)C1 [compound 49],,,,,,,

# The next lines start with the molecule.
Structure (SMILES),MIC [2] [µg/mL],MIC (P.aeruginosa (IFO 3445)) [µg/mL],MIC [3] [µg/mL],Number of toxicity-developed cases ([1]; first column),Number of toxicity-developed cases ([1]; second column),Number of toxicity-developed cases ([1]; third column),ranking points ([1]; first column),ranking points ([1]; second column),ranking points ([1]; third column),"Excretion rate (24 hrs, %) in bile [4] [%]"
"Cl.N[C@H]1CCN(c2cc3c(cc2F)c(=O)c(C(=O)O)cn3-c2ccon2)C1 [Compound No. 4, 7-{3(S)-aminopyrrolidin-1-yl}-6-fluoro-1-(isoxazol-3-yl)-1,4-dihydro-4-oxoquinoline-3-carboxylic acid hydrochloride]",0.1,0.1,0.025,0/6,0/6,0/6,0,0,0,
C[C@H]1CN(c2cc3c(cc2F)c(=O)c(C(=O)O)cn3-c2ccon2)C[C@H]1N [Compound No. 5],0.1,0.2,0.025,0/6,0/6,0/6,0,0,0,1.2
"CCn1cc(C(=O)O)c(=O)c2cc(F)c(N3CCNCC3)cc21 [Norfloxacin, reference compound]",,,,,,,1.0,1.0,0,
"CCn1cc(C(=O)O)c(=O)c2cc(F)c(N3CCNCC3)nc21 [Enoxacin, reference compound]",,,,,,,1.0,0.4,0.3,
"CC1COc2c(N3CCN(C)CC3)c(F)cc3c(=O)c(C(=O)O)cn1c23 (stereo not shown) [Ofloxacin, reference compound]",0.39,1.56,0.1,,,,,,,
